In patent publication US7326725B2, “Fungicidal composition based on at least one pyridylmethylbenzamide derivatives and at least on dithiocarbamate derivative” (Bayer Cropscience S.A., priority 2001, dated 2008):

Tested on: Plasmopara viticola
Test: Curative test of 24 hours on grapevine infected with Plasmopara viticola
Assay type: in vivo
Conditions: single compound, curative spray on Chardonay grapevine, assessed after six days at 20° C.
Description: The trials consisted in curative tests of 24 hours on grapevine infected with Plasmopara viticola.
Grapevine (Chardonay variety) plants are grown on sandy soil in plastic pots, with one plant per pot. The plants which are two months old (6- to 7-leaf stage) are inoculated by spraying an aqueous suspension of Plasmopara viticola sporocysts obtained from infected leaves. The concentration of sporocysts is about 100 000 units per ml.
After infection, the inoculated plants are subjected to a curative treatment by spraying with compound (I) alone and compound (II) alone, and with a mixture of compound (I) and compound (II), in each case applied at a dose of 500 l/ha.
After infection and curative treatment, the plants are covered and left for six days at 20° C.
The percentage control of the disease (efficacy: see below) is calculated for each treatment with reference to the untreated plants and the expected results are calculated using the Colby formula (see below).
The difference between the real results and the expected results is used to determine the synergy between the two fungicidal compounds of the composition according to the invention.
The efficacy of the treatment is calculated using the following Abbott formula: […]
Analysis of the results is carried out using the Colby model:
[formula] in which E represents the expected percentage of inhibition of the disease for the combination of the two fungicides at defined doses (for example equal to x and y respectively), x is the percentage of inhibition observed for the disease by the compound (I) at a defined dose (equal to x), y is the percentage of inhibition observed for the disease by the compound (II) at a defined dose (equal to y). When the percentage of inhibition observed for the combination is greater than E, there is a synergistic effect.

| Compound | Percentage efficacy (level 0.1 ppm) | Percentage efficacy (level 1 ppm) | Percentage efficacy (level 5 ppm) | Percentage efficacy (level 10 ppm) | Percentage efficacy (level 25 ppm) |
| --- | --- | --- | --- | --- | --- |
| O=C(NCc1ncc(C(F)(F)F)cc1Cl)c1c(Cl)cccc1Cl [(Ia), 2,6-dichloro-N-{[3-chloro-5-(trifluoromethyl)-2-pyridinyl]methyl}-benzamide] | 11.9% | 58.2% | 65.7% | – | – |
| mancozeb | – | 23.1% | – | 5.2% | 17.2% |
